Laboratory results: US20140024171A1, “PERYLENE TETRACARBOXYLIC ACID BISIMIDE DERIVATIVE, N-TYPE SEMICONDUCTOR, A METHOD FOR PRODUCING N-TYPE SEMICONDUCTOR, AND ELECTRONIC DEVICE” (NATIONAL UNIVERSITY CORPORATION KAGAWA UNIVERSITY, priority 2012, published 2014)
Entries after “also recorded” stand apart in the source; their conditions may differ.

Tests used:
[1] = Solubility in organic solvents; format: physicochemical
Protocol: Thus, the liquid crystal compound (1-1) can be formed into a film by a spin coating method using a solution in any of these solvents. The film formation was performed as follows in the present example.
Thus, the liquid crystal compound (2-1) can be formed into a film by a spin coating method using a solution in any of these solvents. The film formation was performed as follows in the present example.

[2] = Charge transport properties (carrier mobility) by transient photocurrent measurement, Time-of-Flight (TOF) method; format: physicochemical; conditions: for maximum electron mobility calculated by the TOF method: room temperature (25° C.), sample thickness 9 μm, applied voltage 10 V to 100 V
Protocol: Charge transport properties (carrier mobility properties) of the liquid crystal compound (2-1) ((2), m=1, n=1) obtained in Example 2 were measured by a Time-of-Flight (TOF) method. In this method, while a DC voltage was applied to a sandwich-type sample (liquid crystal cell produced in Example 4) having photoconductivity, the sample was irradiated with a pulse laser to cause photocarriers to be generated on one side of the sample, and a change in displacement current (transient photocurrent) induced in an external circuit when the carriers transited in the sample over time was measured. A constant current was generated by the transit of photocarriers, and when the carriers reached the counter electrode, the current was decayed to 0. The time from a start of decay in transient photocurrent to 0 corresponds to the time required for the carriers to transit in the sample (transit time). When the thickness of the sample is represented by d (cm), an applied voltage is represented by V (volt), and the transit time is represented by tT, mobility p (cm^2/Vs) is represented by the following mathematical expression. When an electrode on the irradiation side is biased to positive, mobility of positive carriers is determined, and when an electrode on the irradiation side is biased to negative, mobility of negative carriers is determined.
The measurement by a Time-of-Flight method was performed as follows. That is, while a voltage was applied to the liquid crystal cell produced in Example 4 at room temperature, the liquid crystal cell was irradiated with a pulse laser (Nd: YAG laser, THG: wavelength of 356 nm, pulse width of 1 ns), and a displacement current induced at the time of the irradiation was measured with a digital oscilloscope. […] In FIG. 7, the horizontal axis indicates time (μs), and the vertical axis indicates a photocurrent (μA). The present sample has favorable photoconductivity, and thus, sufficiently strong current signal could be obtained. […] According to the measurement result, the mobility of negative carriers reached maximum at 1×10^−3 cm^2/Vs at 30° C. This value is higher by an order of magnitude than the mobility of a conjugate polymer-fullerene derivative composite generally used in a bulk hetero junction-type organic thin-film solar battery.
Charge transport properties (carrier mobility properties) of the liquid crystal compound (2-44) ((2), m=0, n=1)) were measured through transient photocurrent measurement by a Time-of-Flight method using the liquid crystal cell produced in Example 8. The transient photocurrent measurement by a Time-of-Flight method was performed in the same manner as in the measurement of charge transport properties (carrier mobility properties) of the liquid crystal compound (2-1) ((2), m=1, n=1). The thickness of a sample of the liquid crystal compound (2-44) ((2), m=0, n=1)) was 25 μm. The measurement temperature was 40° C., and the measurement was performed while changing an applied voltage from 10 V to 100 V by 10 V increments. The graphs of FIGS. 11A and 11B show the results of the measurement. In FIGS. 11A and 11B, the horizontal axis indicates time (μs), and the vertical axis indicates a photocurrent (μA). As shown in FIGS. 11A and 11B, in the same time of flight, the higher the applied voltage was, the higher the photocurrent flowed.
In addition, the same measurement as in FIGS. 11A and 11B was performed with a change in measurement temperature from 25° C. to 130° C. The result of the measurement is shown in a graph of FIG. 12A. In FIG. 12A, the horizontal axis indicates an electric field strength (10^4 V/cm), and the vertical axis indicates carrier mobility (cm^2/Vs). […] Thus, the vertical axis (carrier mobility) is equal to electron mobility.
A result of the measurement at an electric field strength of 4.0×10^4 V/cm in FIG. 12A is shown in a graph of FIG. 12B as a function of time and electron mobility. […]

C[Si](C)(C)O[Si](C)(C)O[Si](C)(C)CCCN1C(=O)c2ccc3c4ccc5c6c(ccc(c7ccc(c2c37)C1=O)c64)C(=O)N(CCC[Si](C)(C)O[Si](C)(C)O[Si](C)(C)C)C5=O [Compound (1-1), perylene tetracarboxylic acid bis(1,1,1,3,3,5,5-heptamethyltrisiloxanylpropylimide)]
solubility in organic solvents [1]: soluble in toluene, chlorobenzene, tetrahydrofuran, chloroform, dichloromethane, and the like; also recorded: high solubility in various organic solvents

C[Si](C)(C)O[Si](C)(C)O[Si](C)(C)CCCCC(CCCC[Si](C)(C)O[Si](C)(C)O[Si](C)(C)C)N1C(=O)c2ccc3c4ccc5c6c(ccc(c7ccc(c2c37)C1=O)c64)C(=O)N(C(CCCC[Si](C)(C)O[Si](C)(C)O[Si](C)(C)C)CCCC[Si](C)(C)O[Si](C)(C)O[Si](C)(C)C)C5=O [Compound (2-1), perylene tetracarboxylic acid bis{di-(1,1,1,3,3,5,5-heptamethyltrisiloxanylbutyl)-methylimide}]
solubility in organic solvents [1]: soluble in ethyl acetate, acetone, cyclohexane, and the like in addition to toluene, chlorobenzene, tetrahydrofuran, chloroform, dichloromethane, and the like; also recorded: high solubility in various organic solvents

C[Si](C)(C)O[Si](C)(C)CCCCC(CCCC[Si](C)(C)O[Si](C)(C)C)N1C(=O)c2ccc3c4ccc5c6c(ccc(c7ccc(c2c37)C1=O)c64)C(=O)N(C(CCCC[Si](C)(C)O[Si](C)(C)C)CCCC[Si](C)(C)O[Si](C)(C)C)C5=O [Compound (2-44)]
electron mobility relative to the maximum electron mobility of liquid crystal compound (2-1) [2]: 100 times higher | maximum electron mobility ([2]; 40° C., electric field strength 4.0×10^4 V/cm, sample thickness 25 μm): 1.2×10^−1 cm^2/Vs | electron mobility at 130° C. relative to the electron mobility at 40° C. ([2]; temperature increased to 130° C.): about a half

C[Si](C)(C)O[Si](C)(C)CCCCCCC(CCCCCC[Si](C)(C)O[Si](C)(C)C)N1C(=O)c2ccc3c4ccc5c6c(ccc(c7ccc(c2c37)C1=O)c64)C(=O)N(C(CCCCCC[Si](C)(C)O[Si](C)(C)C)CCCCCC[Si](C)(C)O[Si](C)(C)C)C5=O [Compound (2-46)]
electron mobility relative to the maximum electron mobility of liquid crystal compound (2-1) [2]: about 10 times higher | maximum electron mobility calculated by the TOF method [2]: 1×10^−2 cm/Vs

C[Si](C)(C)O[Si](C)(C)O[Si](C)(C)CCCCC(CCCC[Si](C)(C)O[Si](C)(C)O[Si](C)(C)C)Oc1ccc(N2C(=O)c3ccc4c5ccc6c7c(ccc(c8ccc(c3c48)C2=O)c75)C(=O)N(c2ccc(OC(CCCC[Si](C)(C)O[Si](C)(C)O[Si](C)(C)C)CCCC[Si](C)(C)O[Si](C)(C)O[Si](C)(C)C)cc2)C6=O)cc1 [Compound (5-1), N—N′-bis(4-(1,9,-di(1,1,1,3,3,5,5-heptamethyltrisiloxanyl)nonane-5-yloxy)phenyl)perylene-3,4,9,10-tetracarboxylic acid bisimide]
maximum electron mobility calculated by the TOF method [2]: 1×10^−4 cm/Vs

C=CCN1C(=O)c2ccc3c4ccc5c6c(ccc(c7ccc(c2c37)C1=O)c64)C(=O)N(CC=C)C5=O [Compound (6), perylene tetracarboxylic acid bis(allylimide)]
solubility in organic solvents [1]: barely dissolved in an organic solvent
